Assay results from PubChem BioAssay AID1918995 (Molecular Pharmacology Branch, DTP, NCI, 2023).

Test system: 324938-238-R-J1-PDC complex spheroid growth, % test/control
Test: Anticancer human tumor 324938-238-R-J1-PDC patient-derived bladder carcinoma cell line growth inhibition [AhR]
Settings: for IC50: curve of first compound; for viability, T/C: stronger effect = lower value
How it was run: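 Complex tumor spheroids co-cultured with HUVEC and human MSC stroma; AhR antagonists tested in combination with standard-of-care and investigational agents. Top concentration at or near clinical Cmax (else 10 microM), half-log dilutions; growth expressed as percent test/control.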

[1] = second compound 0.1 µM, first compound 0.0316 µM
[2] = second compound 0.1 µM, first compound 0.1 µM
[3] = second compound 0.1 µM, first compound 0.316 µM
[4] = second compound 0.1 µM, first compound 1 µM
[5] = second compound 0.1 µM, first compound 3.16 µM
[6] = second compound 0.1 µM, first compound 10 µM
[7] = second compound 0.316 µM, first compound 0.0316 µM
[8] = second compound 0.316 µM, first compound 0.1 µM
[9] = second compound 0.316 µM, first compound 0.316 µM
[10] = second compound 0.316 µM, first compound 1 µM
[11] = second compound 0.316 µM, first compound 3.16 µM
[12] = second compound 0.316 µM, first compound 10 µM
[13] = second compound 1 µM, first compound 0.0316 µM
[14] = second compound 1 µM, first compound 0.1 µM
[15] = second compound 1 µM, first compound 0.316 µM
[16] = second compound 1 µM, first compound 1 µM
[17] = second compound 1 µM, first compound 3.16 µM
[18] = second compound 1 µM, first compound 10 µM
[19] = second compound 3.16 µM, first compound 0.0316 µM
[20] = second compound 3.16 µM, first compound 0.1 µM
[21] = second compound 3.16 µM, first compound 0.316 µM
[22] = second compound 3.16 µM, first compound 1 µM
[23] = second compound 3.16 µM, first compound 3.16 µM
[24] = second compound 3.16 µM, first compound 10 µM
[25] = second compound 10 µM, first compound 0.0316 µM
[26] = second compound 10 µM, first compound 0.1 µM
[27] = second compound 10 µM, first compound 0.316 µM
[28] = second compound 10 µM, first compound 1 µM
[29] = second compound 10 µM, first compound 3.16 µM
[30] = second compound 10 µM, first compound 10 µM
[31] = second compound 0.1 µM, first compound 0.00949 µM
[32] = second compound 0.1 µM, first compound 0.03 µM
[33] = second compound 0.1 µM, first compound 0.0949 µM
[34] = second compound 0.1 µM, first compound 0.3 µM
[35] = second compound 0.316 µM, first compound 0.00949 µM
[36] = second compound 0.316 µM, first compound 0.03 µM
[37] = second compound 0.316 µM, first compound 0.0949 µM
[38] = second compound 0.316 µM, first compound 0.3 µM
[39] = second compound 1 µM, first compound 0.00949 µM
[40] = second compound 1 µM, first compound 0.03 µM
[41] = second compound 1 µM, first compound 0.0949 µM
[42] = second compound 1 µM, first compound 0.3 µM
[43] = second compound 3.16 µM, first compound 0.00949 µM
[44] = second compound 3.16 µM, first compound 0.03 µM
[45] = second compound 3.16 µM, first compound 0.0949 µM
[46] = second compound 3.16 µM, first compound 0.3 µM
[47] = second compound 10 µM, first compound 0.00949 µM
[48] = second compound 10 µM, first compound 0.03 µM
[49] = second compound 10 µM, first compound 0.0949 µM
[50] = second compound 10 µM, first compound 0.3 µM
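Also: spheroids exposed to agents for seven days before viability read.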

For `CC1(C)CCC(CN2CCN(c3ccc(C(=O)NS(=O)(=O)c4ccc(NCC5CCOCC5)c([N+](=O)[O-])c4)c(Oc4cnc5[nH]ccc5c4)c3)CC2)=C(c2ccc(Cl)cc2)C1` + CC(CO)NC(=O)c1cc(-c2ccc(Cl)cc2)nn(-c2cnn(C)c2)c1=O, the IC50 (second compound 0.1 µM) was greater than 10000 nM, the IC50 (second compound 0.316 µM) was greater than 10000 nM and the IC50 (second compound 1 µM) was greater than 10000 nM. The IC50 (second compound 3.16 µM) was greater than 10000 nM, the IC50 (second compound 10 µM) was greater than 10000 nM and the viability, T/C [1] was 102%. For the same molecule, the viability, T/C [2] was 101%, the viability, T/C [3] was 91.8% and the viability, T/C [4] was 77.1%. The viability, T/C [5] was 72.4%, the viability, T/C [6] was 61.4% and the viability, T/C [7] was 96.2%. For the same molecule, the viability, T/C [8] was 96.7%, the viability, T/C [9] was 89.9% and the viability, T/C [10] was 82.2%. It also gave a viability, T/C [11] of 70.9%, a viability, T/C [12] of 61.8% and a viability, T/C [13] of 80.6%. For the same molecule, the viability, T/C [14] was 87.9%, the viability, T/C [15] was 92.3% and the viability, T/C [16] was 72%. For the same molecule, the viability, T/C [17] was 68.2%, the viability, T/C [18] was 62% and the viability, T/C [19] was 71.8%. The viability, T/C [20] was 77.6%, the viability, T/C [21] was 68.3% and the viability, T/C [22] was 61.3%. It also gave a viability, T/C [23] of 65.5%, a viability, T/C [24] of 54.4% and a viability, T/C [25] of 62.2%. It also gave a viability, T/C [26] of 63.4%, a viability, T/C [27] of 67.6% and a viability, T/C [28] of 59.4%. It also gave a viability, T/C [29] of 61.5% and a viability, T/C [30] of 50.6%.

`CC1COCCN1c1cc(C2(S(C)(=N)=O)CC2)nc(-c2ccnc3[nH]ccc23)n1` (stereo not given) + CC(CO)NC(=O)c1cc(-c2ccc(Cl)cc2)nn(-c2cnn(C)c2)c1=O was tested, and the IC50 (second compound 0.1 µM) was 2180 nM, the IC50 (second compound 0.316 µM) was 1580 nM and the IC50 (second compound 1 µM) was 2110 nM. It also gave an IC50 (second compound 3.16 µM) of 1760 nM, an IC50 (second compound 10 µM) of 916 nM and a viability, T/C [1] of 95.6%. For the same molecule, the viability, T/C [2] was 109%, the viability, T/C [3] was 89.6% and the viability, T/C [4] was 69.8%. The viability, T/C [5] was 41.4%, the viability, T/C [6] was 19.8% and the viability, T/C [7] was 103%. It also gave a viability, T/C [8] of 97.5%, a viability, T/C [9] of 91.5% and a viability, T/C [10] of 57.2%. For the same molecule, the viability, T/C [11] was 37.3%, the viability, T/C [12] was 20.6% and the viability, T/C [13] was 89.4%. The viability, T/C [14] was 95.9%, the viability, T/C [15] was 98.1% and the viability, T/C [16] was 72%. For the same molecule, the viability, T/C [17] was 38.6%, the viability, T/C [18] was 22.5% and the viability, T/C [19] was 81.3%. It also gave a viability, T/C [20] of 77.9%, a viability, T/C [21] of 76.3% and a viability, T/C [22] of 65.6%. It also gave a viability, T/C [23] of 34%, a viability, T/C [24] of 16.7% and a viability, T/C [25] of 70.3%. For the same molecule, the viability, T/C [26] was 73.6%, the viability, T/C [27] was 68.8% and the viability, T/C [28] was 47.3%. It also gave a viability, T/C [29] of 28.8% and a viability, T/C [30] of 20%.

In the case of `CCN(c1cc(-c2ccc(CN3CCOCC3)cc2)cc(C(=O)NCc2c(C)cc(C)[nH]c2=O)c1C)C1CCOCC1` + CC(CO)NC(=O)c1cc(-c2ccc(Cl)cc2)nn(-c2cnn(C)c2)c1=O, the IC50 (second compound 0.1 µM) is reported as greater than 3000 nM, the IC50 (second compound 0.316 µM) is reported as greater than 3000 nM and the IC50 (second compound 1 µM) is reported as greater than 3000 nM. For the same molecule, the IC50 (second compound 3.16 µM) was greater than 3000 nM, the IC50 (second compound 10 µM) was greater than 3000 nM and the viability, T/C [31] was 105%. It also gave a viability, T/C [32] of 114%, a viability, T/C [33] of 107% and a viability, T/C [34] of 101%. For the same molecule, the viability, T/C (second compound 0.1 µM, first compound 0.949 µM) was 95%, the viability, T/C (second compound 0.1 µM, first compound 3 µM) was 101% and the viability, T/C [35] was 102%. The viability, T/C [36] was 96.3%, the viability, T/C [37] was 92.8% and the viability, T/C [38] was 94.8%. It also gave a viability, T/C (second compound 0.316 µM, first compound 0.949 µM) of 96.6%, a viability, T/C (second compound 0.316 µM, first compound 3 µM) of 93.2% and a viability, T/C [39] of 88%. For the same molecule, the viability, T/C [40] was 92.4%, the viability, T/C [41] was 89.2% and the viability, T/C [42] was 98.3%. For the same molecule, the viability, T/C (second compound 1 µM, first compound 0.949 µM) was 90.2%, the viability, T/C (second compound 1 µM, first compound 3 µM) was 88.9% and the viability, T/C [43] was 79.3%. It also gave a viability, T/C [44] of 80.6%, a viability, T/C [45] of 76.7% and a viability, T/C [46] of 72.5%. The viability, T/C (second compound 3.16 µM, first compound 0.949 µM) was 77.3%, the viability, T/C (second compound 3.16 µM, first compound 3 µM) was 77.6% and the viability, T/C [47] was 70.4%. It also gave a viability, T/C [48] of 69%, a viability, T/C [49] of 67.5% and a viability, T/C [50] of 77.3%. For the same molecule, the viability, T/C (second compound 10 µM, first compound 0.949 µM) was 66.3% and the viability, T/C (second compound 10 µM, first compound 3 µM) was 74.1%.

With `Nc1ncn(C2CC(O)C(CO)S2)c(=O)n1` (stereo not given) + CC(CO)NC(=O)c1cc(-c2ccc(Cl)cc2)nn(-c2cnn(C)c2)c1=O the IC50 (second compound 0.1 µM) was 284 nM, the IC50 (second compound 0.316 µM) was 254 nM and the IC50 (second compound 1 µM) was greater than 300 nM. For the same molecule, the IC50 (second compound 3.16 µM) was 139 nM, the IC50 (second compound 10 µM) was greater than 300 nM and the viability, T/C (second compound 0.1 µM, first compound 0.000949 µM) was 99.4%. For the same molecule, the viability, T/C (second compound 0.1 µM, first compound 0.003 µM) was 93.2%, the viability, T/C [31] was 90.7% and the viability, T/C [32] was 84%. It also gave a viability, T/C [33] of 69.4%, a viability, T/C [34] of 49% and a viability, T/C (second compound 0.316 µM, first compound 0.000949 µM) of 93.9%. It also gave a viability, T/C (second compound 0.316 µM, first compound 0.003 µM) of 88.4%, a viability, T/C [35] of 78.1% and a viability, T/C [36] of 78.7%. For the same molecule, the viability, T/C [37] was 64.2%, the viability, T/C [38] was 46.5% and the viability, T/C (second compound 1 µM, first compound 0.000949 µM) was 91.9%. It also gave a viability, T/C (second compound 1 µM, first compound 0.003 µM) of 89.6%, a viability, T/C [39] of 90.5% and a viability, T/C [40] of 69.4%. The viability, T/C [41] was 59.1%, the viability, T/C [42] was 54.2% and the viability, T/C (second compound 3.16 µM, first compound 0.000949 µM) was 75.1%. For the same molecule, the viability, T/C (second compound 3.16 µM, first compound 0.003 µM) was 75.4%, the viability, T/C [43] was 70.3% and the viability, T/C [44] was 58%. It also gave a viability, T/C [45] of 57%, a viability, T/C [46] of 41.6% and a viability, T/C (second compound 10 µM, first compound 0.000949 µM) of 64.6%. For the same molecule, the viability, T/C (second compound 10 µM, first compound 0.003 µM) was 72.6%, the viability, T/C [47] was 57.1% and the viability, T/C [48] was 65.2%. It also gave a viability, T/C [49] of 52.5% and a viability, T/C [50] of 53.3%.
